The results in this text go back to patent US10676747B2, “Methods for improving cognitive function via modulation of quinone reductase 2” (Carmel-Haifa University Economic Corp. Ltd., priority 2014, dated 2020).

The test system of data set [1] is mice. Briefly: Morris Water Maze after QR2 shRNA injection into hippocampus (CA1 region). The format is in vivo, mouse. As for the experimental part:
M&M—Spatial reference memory in the Morris Water Maze (MWM) was determined as previously described (Vorhees, Williams 2006). The pool was 1.2 m in diameter and the water was rendered opaque by the addition of white tempera. Water temperature was kept at 22° C. The platform was 8 cm in diameter. All behavioral tests and trials were performed at the same time of day (±1 hr) during the animal's light phase. The mice were acclimatized in testing room for 15 min. Mice were trained in four trials per day (trial length 60 s with 30 s ITI), over 4 consecutive days. If an animal fails to locate the platform within training time, it is usually picked up and placed on the platform for 15 s. For probe trials, the platform was removed from the maze and the animals were allowed to search for 60 s. Learning was evaluated by monitoring escape latencies to a hidden (submerged) platform and time spent in each quadrant of the maze (quadrant occupancy) with an automated video tracking system, and the data analyzed by EthoVision XT9 (Noldus Information Technology, USA). Swimming speed was similar in QR2 shRNA and scrambled injected animals (data not shown).

The test system of data set [2] is mice. Briefly: Delay fear conditioning test after QR2 shRNA lentivirus injection into the CA1 region of hippocampus. Format: in vivo, mouse. As for the experimental part: M&M—A delay fear conditioning test was performed on two groups of mice (10 mice per group) injected with Lentivirus encoding the QR2 shRNA or a scrambled sequence one week before the experiment. The Lentivirus was injected in to the CA1 region of hippocampus. The conditioning apparatus used was four New Biotechnology Ltd. (NBT) chambers, (Panlab Harvard Apparatus, Barcelona, Spain) consisting of a Plexiglas walls (25×25×25 cm) with a 16 stainless steel rods grid floor, a dim light and speakers. The apparatus was located inside a sound proof larger, insulated plastic cabinet that excluded outside light and noise. On day 1 (training), the mice were transported to the nearby testing room and set next to the conditioning chambers for a 5 min resting period with lights off. Each chamber was wiped with 30% ethanol solution before training and each mouse was placed in the chamber individually during training. For delay fear conditioning, mice were pre-exposed to an experimental chamber for 5 min, and received 5 trials in which 4000 Hz, tone, applied for 10 seconds at 76 dB (conditioned stimuli; CS) co-terminated by a 0.36 mA foot shock applied for 2 second (unconditioned stimuli; US), separated by 3.5 min inter-trial interval (ITI). After the last training trial, the mice were left in the conditioning chamber for another 120 s and were then placed back in their home cages.
On day 2 and day 8 (1 week later) (context fear test), the mice were returned to the same experimental chamber with the same contextual configuration for 10 min. Freezing behavior was recorded. On the third day and day 9 (1 week later) (tone fear test), the mice were set next to the conditioning chambers for a 5 min resting period with lights on, then mice were placed into the same experimental chamber, with novel contextual configuration (no light, and a smooth black Plexiglas floor), for 5 min during which freezing was record under infra-red light source. […] The animals' behavior was recorded, and the data analyzed by Freeze Frame 3.0 software (Coulbourn Instruments, PA, USA). […]

Data set [3] deals with rats. The data set is described as follows: Memory extinction following a CTA paradigm in QR2 shRNA injected animals. The format is in vivo, rat. The settings on record: repeated measure ANOVA; FIG. 11. The method, then:
Aversion index—the aversion index is calculated by the following equation [(total water ingested/(novel taste liquid ingested+water ingested))*100].
Conditioned Taste Aversion (CTA)—Two groups of rats were deprived from water for a period of 24 hours. This was followed by 3 days of restriction were the rats received two pipettes each filled with 10 ml of water for 20 minutes each day. On the fourth day both groups received two pipettes each filled with 10 ml of an unfamiliar tasting liquid, either saccharine (0.1% w/v) or NaCl (0.3% w/v), for 20 minutes. Forty minutes following the exposure to the novel liquid the rats in the experimental group received an injection of LiCl (prepared in double distilled water (DDW)) (2% bodyweight, intraperitoneally (i.p.)) and those in the control received an injection of physiological saline (2% bodyweight, i.p.).

Data set [4] concerns QR2 mRNA. Briefly: QR2 mRNA expression in the IC after stereotactic injection of QR2 shRNA virus (RT-PCR). The format is in vivo, rat. The conditions noted are these: compared to scrambled virus group, n=12, p<0.005; FIG. 12.
Procedure: Tissue extraction—Following the learning protocol the insular cortex was removed by hand. The insular cortex was identified through cortical landmarks, the rhinal fissure and the medial cerebral artery. The insular cortex was immediately placed in liquid nitrogen and then stored at −80° C.
(§1) mRNA quantification—We used the RNeasy lipid tissue kit (QIAGEN) according to the manufacturer's instructions in order to extract the RNA. We then evaluated RNA concentration and purity using a nanodrop spectrophotometer.
(§2) The cDNA synthesis was accomplished using the High Capacity Reverse Transcription Kit (ABI) according to the manufacturer's instructions. The reaction was carried out in a total volume of 20 μl on 1000 ng of RNA.
(§3) The qPCR reaction was performed in a total volume of 10 μl on 10 ng of cDNA. We used the following TaqMan assays (Applied Biosystems): QR2 (Rn01434728_g1), NQO1 (RN00566528_m1), glyceraldehyde-3-phosphate dehydrogenase, GAPDH (Rn01775763_g1). The reactions were carried out per the manufacturer's instructions.
(§4) Real Time-PCR analysis was performed using the PCR System STEP-ONE plus (Applied Biosystems). Relative mRNA levels were calculated using the ΔΔCt method using GAPDH as a normalizing gene: ΔΔCt=[(Ct(gene of interest)−Ct(GAPDH)) of the untreated group]−[(Ct(gene of interest)−Ct(GAPDH)) of the treated group]. The fold increase is then calculated as such: fold increase=2−ΔΔCt. […]
For data set [5], the system named is rats. Briefly: Novel taste (saccharin) choice test after injection of QR2 shRNA virus into the IC. The format is in vivo, rat. The settings on record: lentivirus injected into IC; choice test three days after saccharin; mean+/-SEM, n=12. As for the experimental part:
Micro-infusion—Rats were anesthetized with Equithesin (0.45 ml/100 g) (2.12% w/v MgSO4, 10% v/v ethanol, 39.1% v/v 1,2,-propranolol, 0.98% w/v sodium pentobarbital, and 4.2% w/v chloral hydrate), restrained in a stereotactic apparatus (Stoelting, USA) and injected bilaterally with a 10 mm 28 gauge injection cannula aimed at the rat gustatory cortex (anteroposterior, +1.2 mm relative to bregma; lateral, ±5.5 mm; ventral, −5.5 mm; (Paxinos and Watson, 1986). The injection cannula was connected via PE20 tubing to a Hamilton microsyringe driven by a micro-infusion pump (CMA/100; Carnegie Medicin). […] The injection cannula was left in position before withdrawal for an additional 1 min to minimize dragging of the injected liquid along the injection tract. To avoid lateral bias, animals were injected interchangeably between both sides. Following the microsurgery, animals were injected i.m. with antibiotic and were allowed to recuperate for one week. […]
Preference index—the preference index was calculated by the following equation [(total novel taste liquid ingested/(novel taste liquid ingested+water ingested))*100]. […]

Data set [6] concerns QR2 mRNA. Briefly: QR2 mRNA expression in primary cortical cells treated with QR2 shRNA lentiviral clones. The conditions noted are these: rat primary cortical cells, week long incubation, compared to scrambled virus; FIG. 8. Format: cell-based.
Procedure: as §1, §2, §3, §4
For this purpose, we evaluated three different clones (Sigma-Aldrich, Israel). […] We then evaluated QR2 mRNA expression.

For the substance “v394: shRNA construct directed against mouse QR2 (Sigma-Aldrich clone), subcloned into lentiviral plasmid pFUGW; chosen clone used for the injected virus (CCGGCAGUCACUGUGUCUGAUUUAUCUCGAGAUAAAUCAGACACAGUGACUGUUUUUG)”, the “Quadrant occupancy (time in target quadrant), probe test” value in the data set with mice [1] (after completion of training, vs scrambled injected mice, p=0.031) is “preferential quadrant occupancy”. Also, the “Escape latency to hidden platform” value with mice [1] (day 4 of training, vs scrambled injected mice, p=0.036) is recorded as “shorter latency”. For the same substance, the Swimming speed result in the data set on mice [1] (vs scrambled injected animals, data not shown) is “similar”. Further, in the data set on mice [1] (vs scrambled injected mice, p=0.029), the “Crossings of the platform location, probe test” value is “more times”. For the same substance, in the data set on mice [2] (1 week later, vs scrambled sequence, context p=0.03, tone p=0.031), the “Long term memory (response to conditioned context and tone)” value is on record as “enhanced long term memory”. Also, the “Freezing response, context test” value with mice [2] (day 2, vs scrambled sequence, n=10, p=0.031) is “froze significantly frequently”. In addition, in the data set with mice [2] (day 3, vs scrambled sequence, n=10, p=0.003), the “Freezing response, tone test” value was “froze significantly frequently”. The “Memory extinction (aversion index over time)” value with rats [3] was “significant extinction on Day 3”. Moreover, in the data set on QR2 mRNA [4], the “QR2 mRNA expression in the IC” value is “significantly lower QR2 mRNA expression”. Further, the “Preference index (PI)” value with rats [5] is on record as 76.3+/−2.14. Further, in the data set with QR2 mRNA [6], the “QR2 mRNA expression” value is given as “slightly more effective”.
